Source: ChEMBL document CHEMBL6134788, “Development of naphthalimide hydrazide derivatives as potent antibacterial agents against carbapenem-resistant A. baumannii” (RSC Med Chem, 2024)
≈ marks a conversion by molar mass, not a printed value. Calls of active or inactive are those of the source. The rule behind the calls is not given here.

Experiments:
[1] = system: Acinetobacter baumannii; experiment: Antibacterial activity against multi-drug resistant Acinetobacter baumannii clinical isolate 1 assessed as inhibition of bacterial growth incubated for 16 to 18 hrs by CLSI protocol based method; format: functional; conditions: time 16-18 hrs, read-out: MIC100
[2] = system: Acinetobacter baumannii; experiment: Antibacterial activity against Acinetobacter baumannii ATCC 17978 assessed as inhibition of bacterial growth incubated for 16 to 18 hrs by CLSI protocol based method; format: functional; conditions: time 16-18 hrs, read-out: MIC100
[3] = system: Acinetobacter baumannii; experiment: Antibacterial activity against carbapenem-resistant Acinetobacter baumannii BAA 1605 assessed as inhibition of bacterial growth incubated 24 hrs in presence of amikacin by checkerboard method; format: functional
[4] = system: Acinetobacter baumannii; experiment: Antibacterial activity against carbapenem-resistant Acinetobacter baumannii BAA 1605 assessed as inhibition of bacterial growth by measuring fractional inhibitory concentration incubated 24 hrs in presence of amikacin by checkerboard method; format: functional
[5] = system: Acinetobacter baumannii; experiment: Antibacterial activity against carbapenem-resistant Acinetobacter baumannii BAA 1605 assessed as inhibition of bacterial growth incubated for 16 to 18 hrs by CLSI protocol based method; format: functional; conditions: time 16-18 hrs, read-out: MIC100
[6] = system: Acinetobacter baumannii; experiment: Antibacterial activity against multi-drug resistant Acinetobacter baumannii clinical isolate 2 assessed as inhibition of bacterial growth incubated for 16 to 18 hrs by CLSI protocol based method; format: functional; conditions: time 16-18 hrs, read-out: MIC100
[7] = system: Acinetobacter baumannii; experiment: Antibacterial activity against multi-drug resistant Acinetobacter baumannii clinical isolate 3 assessed as inhibition of bacterial growth incubated for 16 to 18 hrs by CLSI protocol based method; format: functional; conditions: time 16-18 hrs, read-out: MIC100
[8] = Cytotoxicity against African green monkey Vero cells assessed as reduction in cell viability incubated for 72 hrs by MTT assay; format: toxicity, cell-based; conditions: chlorocebus sabaeus
[9] = system: Acinetobacter baumannii; experiment: Synergistic antibacterial activity against carbapenem-resistant Acinetobacter baumannii BAA 1605 assessed as inhibition of bacterial growth by measuring fractional inhibitory concentration incubated 24 hrs in presence of tobramycin by checkerboard method; format: functional
[10] = system: Acinetobacter baumannii; experiment: Antibacterial activity against multi-drug resistant Acinetobacter baumannii clinical isolate 4 assessed as inhibition of bacterial growth incubated for 16 to 18 hrs by CLSI protocol based method; format: functional; conditions: time 16-18 hrs, read-out: MIC100
[11] = system: Acinetobacter baumannii; experiment: Antibacterial activity against carbapenem-resistant Acinetobacter baumannii BAA 1605 assessed as rifampicin MIC by measuring fractional inhibitory concentration incubated 24 hrs by checkerboard method relative to rifampicin alone; format: functional
[12] = system: Acinetobacter baumannii; experiment: Antibacterial activity against multi-drug resistant Acinetobacter baumannii NR-17777 assessed as inhibition of bacterial growth incubated for 16 to 18 hrs by CLSI protocol based method; format: functional; conditions: time 16-18 hrs, read-out: MIC100
[13] = system: Acinetobacter baumannii; experiment: Antibacterial activity against multi-drug resistant Acinetobacter baumannii 5-032 assessed as inhibition of bacterial growth incubated for 16 to 18 hrs by CLSI protocol based method; format: functional; conditions: time 16-18 hrs, read-out: MIC100
[14] = system: Klebsiella pneumoniae; experiment: Antibacterial activity against Klebsiella pneumoniae BAA 1705 assessed as inhibition of bacterial growth incubated for 16 to 18 hrs by CLSI protocol based method; format: functional; conditions: time 16-18 hrs, read-out: MIC100
[15] = system: Acinetobacter baumannii; experiment: Antibacterial activity against carbapenem-resistant Acinetobacter baumannii BAA 1605 assessed as levofloxacin MIC by measuring fractional inhibitory concentration incubated 24 hrs by checkerboard method relative to levofloxacin alone; format: functional
[16] = system: Acinetobacter baumannii; experiment: Antibacterial activity against carbapenem-resistant Acinetobacter baumannii BAA 1605 assessed as tobramycin MIC by measuring fractional inhibitory concentration incubated 24 hrs by checkerboard method relative to tobramycin alone; format: functional
[17] = system: Acinetobacter baumannii; experiment: Antibacterial activity against multi-drug resistant Acinetobacter baumannii H72721 assessed as inhibition of bacterial growth incubated for 16 to 18 hrs by CLSI protocol based method; format: functional; conditions: time 16-18 hrs, read-out: MIC100
[18] = system: Escherichia coli; experiment: Antibacterial activity against Escherichia coli ATCC 25922 assessed as inhibition of bacterial growth incubated for 16 to 18 hrs by CLSI protocol based method; format: functional; conditions: time 16-18 hrs, read-out: MIC100
[19] = system: Acinetobacter baumannii; experiment: Antibacterial activity against carbapenem-resistant Acinetobacter baumannii BAA 1605 assessed as inhibition of bacterial growth by measuring rifampicin MIC incubated 24 hrs by checkerboard method; format: functional
[20] = system: Acinetobacter baumannii; experiment: Antibacterial activity against multi-drug resistant Acinetobacter baumannii clinical isolate 11 assessed as inhibition of bacterial growth incubated for 16 to 18 hrs by CLSI protocol based method; format: functional; conditions: time 16-18 hrs, read-out: MIC100
[21] = system: Acinetobacter baumannii; experiment: Antibacterial activity against multi-drug resistant Acinetobacter baumannii WL-136 assessed as inhibition of bacterial growth incubated for 16 to 18 hrs by CLSI protocol based method; format: functional; conditions: time 16-18 hrs, read-out: MIC100
[22] = system: Acinetobacter baumannii; experiment: Antibacterial activity against multi-drug resistant Acinetobacter baumannii clinical isolate 7 assessed as inhibition of bacterial growth incubated for 16 to 18 hrs by CLSI protocol based method; format: functional; conditions: time 16-18 hrs, read-out: MIC100
[23] = system: Acinetobacter baumannii; experiment: Antibacterial activity against multi-drug resistant Acinetobacter baumannii clinical isolate 10 assessed as inhibition of bacterial growth incubated for 16 to 18 hrs by CLSI protocol based method; format: functional; conditions: time 16-18 hrs, read-out: MIC100
[24] = system: Acinetobacter baumannii; experiment: Antibacterial activity against carbapenem-resistant Acinetobacter baumannii BAA 1605 assessed as inhibition of bacterial growth incubated 24 hrs in presence of levofloxacin by checkerboard method; format: functional
[25] = system: Acinetobacter baumannii; experiment: Antibacterial activity against multi-drug resistant Acinetobacter baumannii Naval-81 assessed as inhibition of bacterial growth incubated for 16 to 18 hrs by CLSI protocol based method; format: functional; conditions: time 16-18 hrs, read-out: MIC100
[26] = system: Acinetobacter baumannii; experiment: Antibacterial activity against multi-drug resistant Acinetobacter baumannii 5-189 assessed as inhibition of bacterial growth incubated for 16 to 18 hrs by CLSI protocol based method; format: functional; conditions: time 16-18 hrs, read-out: MIC100
[27] = system: Acinetobacter baumannii; experiment: Antibacterial activity against multi-drug resistant Acinetobacter baumannii clinical isolate 6 assessed as inhibition of bacterial growth incubated for 16 to 18 hrs by CLSI protocol based method; format: functional; conditions: time 16-18 hrs, read-out: MIC100
[28] = system: Acinetobacter baumannii; experiment: Antibacterial activity against multi-drug resistant Acinetobacter baumannii Naval-18 assessed as inhibition of bacterial growth incubated for 16 to 18 hrs by CLSI protocol based method; format: functional; conditions: time 16-18 hrs, read-out: MIC100
[29] = system: Acinetobacter baumannii; experiment: Antibacterial activity against carbapenem-resistant Acinetobacter baumannii BAA 1605 assessed as inhibition of bacterial growth by measuring levofloxacin MIC incubated 24 hrs by checkerboard method; format: functional
[30] = system: Acinetobacter baumannii; experiment: Antibacterial activity against multi-drug resistant Acinetobacter baumannii clinical isolate 9 assessed as inhibition of bacterial growth incubated for 16 to 18 hrs by CLSI protocol based method; format: functional; conditions: time 16-18 hrs, read-out: MIC100
[31] = system: Acinetobacter baumannii; experiment: Antibacterial activity against multi-drug resistant Acinetobacter baumannii clinical isolate 5 assessed as inhibition of bacterial growth incubated for 16 to 18 hrs by CLSI protocol based method; format: functional; conditions: time 16-18 hrs, read-out: MIC100
[32] = system: Acinetobacter baumannii; experiment: Antibacterial activity against multi-drug resistant Acinetobacter baumannii 5-109 assessed as inhibition of bacterial growth incubated for 16 to 18 hrs by CLSI protocol based method; format: functional; conditions: time 16-18 hrs, read-out: MIC100
[33] = system: Acinetobacter baumannii; experiment: Synergistic antibacterial activity against carbapenem-resistant Acinetobacter baumannii BAA 1605 assessed as reduction in bacterial growth measured within 24 hrs in presence of tobramycin by time-kill kinetics analysis; format: functional, organism-based
[34] = system: Acinetobacter baumannii; experiment: Antibacterial activity against carbapenem-resistant Acinetobacter baumannii BAA 1605 assessed as inhibition of bacterial growth by measuring fractional inhibitory concentration incubated 24 hrs in presence of minocycline by checkerboard method; format: functional
[35] = system: Acinetobacter baumannii; experiment: Antibacterial activity against carbapenem-resistant Acinetobacter baumannii BAA 1605 assessed as inhibition of bacterial growth incubated 24 hrs in presence of minocycline by checkerboard method; format: functional
[36] = system: Acinetobacter baumannii; experiment: Antibacterial activity against carbapenem-resistant Acinetobacter baumannii BAA 1605 assessed as inhibition of bacterial growth by measuring fractional inhibitory concentration incubated 24 hrs in presence of levofloxacin by checkerboard method; format: functional
[37] = system: Pseudomonas aeruginosa; experiment: Antibacterial activity against Pseudomonas aeruginosa ATCC 27853 assessed as inhibition of bacterial growth incubated for 16 to 18 hrs by CLSI protocol based method; format: functional; conditions: time 16-18 hrs, read-out: MIC100
[38] = system: Acinetobacter baumannii; experiment: Synergistic antibacterial activity against carbapenem-resistant Acinetobacter baumannii BAA 1605 assessed as inhibition of bacterial growth by measuring tobramycin MIC incubated 24 hrs by checkerboard method; format: functional

**Q.** With `O=C(CCN1C(=O)c2cccc3cccc(c23)C1=O)NNc1ccc(Br)cc1` as the compound, how does the MIC [1] read?
**A.** 0.25 mg/L (≈ 0.57 µM)

**Q.** What about the MIC [2] of the same compound?
**A.** 0.5 mg/L (≈ 1.14 µM)

**Q.** What about the MIC [3] of the same compound?
**A.** 0.25 mg/L

**Q.** And the FIC [4]?
**A.** 0.25

**Q.** And the MIC [5]?
**A.** 0.5 mg/L (≈ 1.14 µM)

**Q.** What about the MIC [6] of the same compound?
**A.** 0.5 mg/L (≈ 1.14 µM)

**Q.** And the MIC [7]?
**A.** 0.25 mg/L (≈ 0.57 µM)

**Q.** What about the CC50 at 72 h [8] of the same compound?
**A.** > 100 mg/L

**Q.** What about the FIC [9] of the same compound?
**A.** 0.25

**Q.** And the MIC [10]?
**A.** 0.5 mg/L (≈ 1.14 µM)

**Q.** What about the FIC [11] of the same compound?
**A.** 0.5

**Q.** And the MIC [12]?
**A.** 0.5 mg/L (≈ 1.14 µM)

**Q.** What about the MIC [13] of the same compound?
**A.** 0.5 mg/L (≈ 1.14 µM)

**Q.** And the MIC [14]?
**A.** > 64 mg/L

**Q.** And the FIC [15]?
**A.** 1

**Q.** And the FIC [16]?
**A.** 0.25

**Q.** What about the MIC [17] of the same compound?
**A.** 0.5 mg/L (≈ 1.14 µM)

**Q.** What about the MIC [18] of the same compound?
**A.** > 64 mg/L

**Q.** What about the MIC [19] of the same compound?
**A.** 2 mg/L

**Q.** And the MIC [20]?
**A.** 4 mg/L (≈ 9.13 µM)

**Q.** And the MIC [21]?
**A.** 0.5 mg/L (≈ 1.14 µM)

**Q.** What about the MIC [22] of the same compound?
**A.** 0.5 mg/L (≈ 1.14 µM)

**Q.** And the MIC [23]?
**A.** 0.5 mg/L (≈ 1.14 µM)

**Q.** What about the MIC [24] of the same compound?
**A.** 1 mg/L

**Q.** And the MIC [25]?
**A.** 0.5 mg/L (≈ 1.14 µM)

**Q.** What about the MIC [26] of the same compound?
**A.** 0.5 mg/L (≈ 1.14 µM)

**Q.** What about the MIC [27] of the same compound?
**A.** 0.5 mg/L (≈ 1.14 µM)

**Q.** What about the MIC [28] of the same compound?
**A.** 0.5 mg/L (≈ 1.14 µM)

**Q.** And the MIC [29]?
**A.** 8 mg/L

**Q.** And the MIC [30]?
**A.** 0.5 mg/L (≈ 1.14 µM)

**Q.** What about the MIC [31] of the same compound?
**A.** 1 mg/L (≈ 2.28 µM)

**Q.** And the MIC [32]?
**A.** 0.5 mg/L (≈ 1.14 µM)

**Q.** What about the Activity [33] of the same compound?
**A.** Active

**Q.** What about the FIC [34] of the same compound?
**A.** 1

**Q.** What about the MIC [35] of the same compound?
**A.** 1 mg/L

**Q.** What about the FIC [36] of the same compound?
**A.** 1

**Q.** What about the MIC [37] of the same compound?
**A.** > 64 mg/L

**Q.** And the MIC [38]?
**A.** 1 mg/L
